This note sets out measurements from PubChem BioAssay (NCI).

Test systems include SNB-19 CNS; NCI-H522 lung; UACC-62 melanoma; DU-145 prostate; HL-60(TB) leukemia; SK-OV-3 ovarian; EKVX NSCLC; KM12 colon; HS 578T breast; HCC-2998 colon; CAKI-1 renal; HOP-92 NSCLC; SF-539 CNS; OVCAR-8 ovarian; NCI-H460 lung; SK-MEL-5 melanoma; SK-MEL-28 melanoma; A549 NSCLC; U251 CNS.
Assay in all cases: NCI tumour cell line growth inhibition, 48 h

Molecules are shown by their SMILES.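 Assay format: 96-well plates, 48-hour exposure. Definition used: TGI = concentration required for complete inhibition of growth.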 A value given as a limit tells only on which side of the number the result lay.

As for `O=[N+]([O-])c1ccc(-c2ccc([C@H]3CC(c4cc(F)c(Cl)cc4Cl)=NN3)o2)cc1`, the TGI with SNB-19 CNS was above 100 µM; with NCI-H522 lung, above 100 µM; in the assay with UACC-62 melanoma it was above 100 µM; in the assay with DU-145 prostate, above 100 µM; in the assay with HL-60(TB) leukemia, 16.2 µM; in the assay on SK-OV-3 ovarian it was above 100 µM. Moreover, the TGI was above 100 µM in the assay with EKVX NSCLC; above 100 µM in the assay with KM12 colon; above 100 µM with HS 578T breast; 38.7 µM in the assay with HCC-2998 colon; above 100 µM in the assay on CAKI-1 renal; above 100 µM with HOP-92 NSCLC. Also, the TGI in the assay on SF-539 CNS was 30.1 µM; with OVCAR-8 ovarian it was above 100 µM; in the assay on NCI-H460 lung, above 100 µM; in the assay on SK-MEL-5 melanoma, 32.2 µM.

Take `FC(F)(F)c1ccc2c(c1)nc(Cc1ccc(Cl)cc1)n2CC1CCCN2CCCCC12` (stereo unspecified): the TGI in the assay on SNB-19 CNS was 26.9 µM; with NCI-H522 lung, 16.9 µM; in the assay with UACC-62 melanoma, 10.1 µM; with SK-MEL-28 melanoma it was 6.38 µM; in the assay with DU-145 prostate, 21.6 µM; in the assay on HL-60(TB) leukemia, 6.13 µM. Further, the TGI in the assay with SK-OV-3 ovarian is 24.1 µM; with EKVX NSCLC, 23.2 µM; with KM12 colon, 21.4 µM; in the assay on HS 578T breast, 6.9 µM; with HCC-2998 colon, 10.5 µM; in the assay with CAKI-1 renal, 30.4 µM. Besides, the TGI in the assay on HOP-92 NSCLC was found to be 20.4 µM; with A549 NSCLC, 25.1 µM; with OVCAR-8 ovarian it was 23.4 µM; with NCI-H460 lung it was 20.7 µM; in the assay with U251 CNS it was 20.5 µM; in the assay on SK-MEL-5 melanoma, 15.2 µM.

`CCOP(=O)(OCC)/C(F)=C/c1ccc(F)cc1`: the TGI in the assay with SNB-19 CNS, in the assay on NCI-H522 lung, in the assay with UACC-62 melanoma, in the assay on SK-MEL-28 melanoma, in the assay with DU-145 prostate and in the assay with HL-60(TB) leukemia was above 100 µM in each case. The TGI in the assay on SK-OV-3 ovarian, in the assay on EKVX NSCLC, in the assay on KM12 colon, in the assay with HS 578T breast, in the assay with CAKI-1 renal and in the assay on HOP-92 NSCLC was above 100 µM throughout. In addition, the TGI in the assay with A549 NSCLC, with SF-539 CNS, with OVCAR-8 ovarian, in the assay on NCI-H460 lung, with U251 CNS and with SK-MEL-5 melanoma was above 100 µM in each case.

With `CC(C(=O)NCNC(=O)c1ccccc1)C(=O)NCc1ccccc1` (stereo unspecified), the TGI with SNB-19 CNS, with NCI-H522 lung, in the assay with UACC-62 melanoma, in the assay with DU-145 prostate, in the assay on HL-60(TB) leukemia and with SK-OV-3 ovarian was above 100 µM each time. In addition, the TGI in the assay with EKVX NSCLC, in the assay with KM12 colon, in the assay on HS 578T breast, with CAKI-1 renal, in the assay with HOP-92 NSCLC and in the assay with A549 NSCLC was above 100 µM each time. Further, the TGI in the assay on SF-539 CNS, in the assay with OVCAR-8 ovarian, with NCI-H460 lung, in the assay with U251 CNS and in the assay on SK-MEL-5 melanoma was above 100 µM throughout.

Take `NS(=O)(=O)c1ccc(NCc2cccc3c(=O)c4ccc(Cl)cc4oc23)cc1`: the TGI with SNB-19 CNS was above 61.8 µM; in the assay on NCI-H522 lung, 99.7 µM; with UACC-62 melanoma it was above 100 µM; in the assay on SK-MEL-28 melanoma it was above 100 µM; in the assay with DU-145 prostate it was above 100 µM; in the assay with HL-60(TB) leukemia, 9.47 µM. Moreover, the TGI with SK-OV-3 ovarian is above 100 µM; in the assay with EKVX NSCLC, above 65.5 µM; with KM12 colon, above 70.7 µM; in the assay on HS 578T breast, 82.3 µM; in the assay on HCC-2998 colon, above 100 µM; in the assay on CAKI-1 renal it was above 85.7 µM. The TGI is 57 µM in the assay with HOP-92 NSCLC; above 100 µM in the assay with A549 NSCLC; above 64.6 µM with SF-539 CNS; above 67.2 µM in the assay with OVCAR-8 ovarian; above 100 µM in the assay with U251 CNS; above 100 µM in the assay on SK-MEL-5 melanoma.

Take `Cc1c(S(=O)(=O)/N=C(\NO)Nc2ccc(Cl)cc2)sc2ccc(Cl)cc12`: the TGI in the assay with SNB-19 CNS is 35.2 µM; with NCI-H522 lung, 22.7 µM; in the assay with UACC-62 melanoma, 29.8 µM; in the assay on SK-MEL-28 melanoma, 32.9 µM; in the assay with DU-145 prostate it was 53.7 µM; in the assay with HL-60(TB) leukemia it was 47.3 µM. Also, the TGI in the assay with SK-OV-3 ovarian was found to be 31.2 µM; in the assay on EKVX NSCLC it was 25.1 µM; with KM12 colon it was 41.7 µM; in the assay with HS 578T breast it was 44.3 µM; in the assay on CAKI-1 renal, 34.3 µM; in the assay on HOP-92 NSCLC, 28.8 µM. The TGI in the assay on A549 NSCLC came out at 33.8 µM; in the assay with SF-539 CNS, 42.1 µM; in the assay on OVCAR-8 ovarian, 32.2 µM; in the assay on NCI-H460 lung it was 76.8 µM; in the assay with U251 CNS, 31.5 µM; in the assay on SK-MEL-5 melanoma, 27.4 µM.

Turning to `COc1cc(N(CCC#N)CCC#N)ccc1/C(N=Nc1cccc([N+](=O)[O-])c1)=N\NC(=O)c1ccc(C)cc1`, the TGI is above 100 µM in the assay on SNB-19 CNS; above 100 µM with NCI-H522 lung; above 100 µM in the assay on UACC-62 melanoma; above 100 µM in the assay with SK-MEL-28 melanoma; above 100 µM in the assay with DU-145 prostate; 49.1 µM in the assay on HL-60(TB) leukemia. The TGI in the assay with SK-OV-3 ovarian is above 100 µM; with EKVX NSCLC, 63.1 µM; in the assay on KM12 colon, above 100 µM; in the assay with HS 578T breast it was above 100 µM; in the assay with HCC-2998 colon it was above 100 µM; in the assay with CAKI-1 renal, above 100 µM. Further, the TGI is above 100 µM with HOP-92 NSCLC; above 100 µM in the assay on A549 NSCLC; above 100 µM in the assay with OVCAR-8 ovarian; 70.5 µM with NCI-H460 lung; above 100 µM in the assay on U251 CNS; above 100 µM in the assay with SK-MEL-5 melanoma.

Regarding `CCOC(=O)c1sc(N)nc1N1CCCC1`, the TGI in the assay with SNB-19 CNS, with NCI-H522 lung, with UACC-62 melanoma, with SK-MEL-28 melanoma, with DU-145 prostate and in the assay on HL-60(TB) leukemia was above 100 µM throughout. Further, the TGI in the assay with SK-OV-3 ovarian, with EKVX NSCLC, in the assay on KM12 colon, in the assay with HS 578T breast, in the assay with CAKI-1 renal and in the assay on HOP-92 NSCLC was above 100 µM each time. Further, the TGI in the assay with A549 NSCLC, in the assay on SF-539 CNS, with OVCAR-8 ovarian, with NCI-H460 lung, in the assay on U251 CNS and with SK-MEL-5 melanoma was above 100 µM throughout.
